Data: patent US20260258500A1, “BIOMARKER FOR METASTATIC BLADDER CANCER” (DONG-A UNIVERSITY RESEARCH FOUNDATION FOR INDUSTRY-ACADEMY …, priority 2022, published 2026)

Columns and labels:
Assay type in all cases: cell-based, human
[1] = system: GRCB cell lines (gemcitabine-resistant 5637); assay: MTT cell viability / IC50 for gemcitabine, GRCB cell lines
Method: (§1) To analyze stepwise molecular mechanisms occurring during a process of anticancer drug resistance in bladder cancer patients, bladder cancer cell lines having resistance to gemcitabine (GEM) as a representative anticancer drug for bladder cancer were constructed. Specifically, five candidate groups A to E of the 5637 cell line were treated with 5 μM GEM (Eli Lilly and company, IN, USA) and cultured for 3 days. Thereafter, the residual cells were washed with phosphate-buffered saline (PBS) and replaced with a new medium. The process was repeated until the cells recovered to 90% confluency, and after each stage was completed, several cell stocks in the same state were stored in liquid nitrogen. Thereafter, the recovered cells were inoculated in a plate and additionally treated with GEM. A total of 15-phase GEM-resistant bladder cancer cell lines were constructed using the method, which were named GRCA, GRCB, GRCC, GRCD, and GRCE according to each group.
(§2) For cell proliferation analysis, 1×10^3 cells were seeded in a 96-well plate and cultured for 24 hours. Thereafter, the cells were treated with 1 μM GEM for 0, 24, 48, and 72 hours, and cell viability was measured at each time point. The cells were then treated with thiazolyl blue tetrazolium bromide (MTT) (Sigma-Aldrich, St. Louis, MO, USA) and reacted for 1 hour. After the reaction was completed, the medium containing MTT was fully removed, and MTT formazan was dissolved using dimethyl sulfoxide (DMSO, Duchefa Biochemie, BH Haarlem, Netherlands). Thereafter, the absorbance was measured at 540 nm using a spectrophotometer microplate reader (Victor 3).

[2] = system: 5637 parental cell line (P0); assay: MTT cell viability after gemcitabine treatment, parental cell line; settings: C of FIG. 1
Method: as §2

[3] = system: GRCA cell lines (gemcitabine-resistant 5637); assay: MTT cell viability / IC50 for gemcitabine, GRCA cell lines
Method: as §1, §2

[4] = P15 cell line, compared to other candidate groups, C of FIG. 1

## Nc1ccn([C@@H]2O[C@H](CO)[C@@H](O)C2(F)F)c(=O)n1 [GEM, gemcitabine]
[1]; P0, P3, P7, P15 cell lines, B of FIG. 2
  IC50 values for GEM: increased in a phase-dependent manner
[1]; [4]
  Resistance to GEM (cell viability): significantly highly resistant
[1]; stages P0, P2, P3, P5, P7, P10, P15, E of FIG. 1
  Resistance to GEM across stages: increased in a phase-dependent manner
[2]
  Resistance to GEM (cell viability): sensitive
[3]; P0, P3, P7, P15 cell lines, A of FIG. 2
  IC50 values for GEM: increased in a phase-dependent manner
[3]; [4]
  Resistance to GEM (cell viability): significantly highly resistant
[3]; stages P0, P2, P3, P5, P7, P10, P15, D of FIG. 1
  Resistance to GEM across stages: increased in a phase-dependent manner
